pIC50, pKd: −log10 of the molar value.
Experiments:
[1] = Induction of anti-CD3 antibodies-stimulated human T cell activation at 1 uM assessed fold increase in IL-2 secretion measured by ELISA assay; type: functional, T cell line; note: reference of the scale not given here
[2] = Induction of anti-CD3/CD28 antibodies-stimulated human T cell activation at 0.3 uM assessed fold increase in CD25 expression measured by ELISA assay; type: functional, T cell line
[3] = Induction of anti-CD3/CD28 antibodies-stimulated human T cell activation at 1 uM assessed fold increase in CD25 expression measured by ELISA assay; type: functional, T cell line
[4] = molecular target: T1, E3 ubiquitin-protein ligase CBL-B (Homo sapiens, UniProt Q13191); assay: Binding affinity towards N-terminal biotinylated Avi-tagged human CBL-B (36 to 427 residues) measured by surface plasmon resonance assay
[5] = Induction of anti-CD3 antibodies-stimulated human CD8+ T cell activation in immunocompetent mouse assessed fold increase in CD25 expression at 90 mg/kg, po administered twice a day; type: functional; note: reference of the scale not given here
[6] = Induction of anti-CD3/CD28 antibodies-stimulated human T cell activation at 0.3 uM assessed fold increase in IL-2 secretion measured by ELISA assay; type: functional, T cell line
[7] = molecular target: T1, E3 ubiquitin-protein ligase CBL-B; assay: Inhibition of N-terminal Avi-tagged human CBL-B (36 to 427 residues) incubated with 60 nM Src kinase for 1.5 hrs followed by incubation with fluorescently labeled UbcH5B-Ub for 1 hr and measured by TR-FRET assay; type: single protein
[8] = Induction of anti-CD3/CD28 antibodies-stimulated human T cell activation at 1 uM assessed fold increase in IL-2 secretion measured by ELISA assay; type: functional, T cell line
[9] = Induction of anti-CD3 antibodies-stimulated human CD4+ T cell activation in immunocompetent mouse assessed fold increase in CD25 expression at 135 mg/kg, po administered twice a day; type: functional; note: reference of the scale not given here
[10] = Induction of anti-CD3 antibodies-stimulated human T cell activation at 1 uM assessed fold increase in CD25 expression measured by ELISA assay; type: functional, T cell line; note: reference of the scale not given here
[11] = molecular target: T1, E3 ubiquitin-protein ligase CBL-B; assay: Inhibition of N-terminal Avi-tagged human CBL-B (36 to 427 residues) incubated with 30 nM Src kinase for 1.5 hrs followed by incubation with fluorescently labeled UbcH5B-Ub for 1 hr and measured by TR-FRET assay

T1 sequence (Q13191 whole entry, the tested form may be a part): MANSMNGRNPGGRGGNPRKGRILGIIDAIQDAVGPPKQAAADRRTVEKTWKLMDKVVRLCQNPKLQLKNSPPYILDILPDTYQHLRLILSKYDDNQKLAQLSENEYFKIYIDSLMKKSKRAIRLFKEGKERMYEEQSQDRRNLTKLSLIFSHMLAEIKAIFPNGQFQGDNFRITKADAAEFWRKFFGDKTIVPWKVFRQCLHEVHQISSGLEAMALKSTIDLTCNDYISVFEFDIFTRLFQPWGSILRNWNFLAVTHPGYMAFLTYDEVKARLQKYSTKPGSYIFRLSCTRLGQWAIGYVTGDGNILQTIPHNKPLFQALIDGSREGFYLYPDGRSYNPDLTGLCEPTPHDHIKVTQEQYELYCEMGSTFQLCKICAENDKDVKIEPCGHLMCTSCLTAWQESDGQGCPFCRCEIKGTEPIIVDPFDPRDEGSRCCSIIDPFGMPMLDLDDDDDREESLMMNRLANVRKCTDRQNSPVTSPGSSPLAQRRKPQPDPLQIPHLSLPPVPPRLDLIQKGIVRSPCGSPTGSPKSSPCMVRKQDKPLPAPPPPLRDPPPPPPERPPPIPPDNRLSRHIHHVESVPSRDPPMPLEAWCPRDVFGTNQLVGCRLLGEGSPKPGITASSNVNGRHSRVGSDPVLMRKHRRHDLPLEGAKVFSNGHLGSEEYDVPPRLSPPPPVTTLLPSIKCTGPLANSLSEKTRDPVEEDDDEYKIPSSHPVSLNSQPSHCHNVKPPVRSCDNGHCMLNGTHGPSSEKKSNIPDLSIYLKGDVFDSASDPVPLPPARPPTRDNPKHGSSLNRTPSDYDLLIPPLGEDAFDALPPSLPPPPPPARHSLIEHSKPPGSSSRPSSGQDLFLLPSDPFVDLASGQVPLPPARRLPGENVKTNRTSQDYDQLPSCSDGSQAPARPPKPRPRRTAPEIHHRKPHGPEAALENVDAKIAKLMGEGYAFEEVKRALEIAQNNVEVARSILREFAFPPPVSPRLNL

SMILES	pKd [4]	pIC50 [7]	pIC50 [11]	fold change (FC) [1]	fold change (FC) [2]	fold change (FC) [3]	fold change (FC) [5]	fold change (FC) [6]	fold change (FC) [8]	fold change (FC) [9]	fold change (FC) [10]
CC(Sc1nncn1C)c1cccc(NC(=O)c2ccncn2)c1 (stereo not drawn)			< 5.00								
Cn1cnnc1[C@H](F)C1(c2cccc(N3Cc4c(cc(CN5CCC(F)CC5)cc4C(F)(F)F)C3=O)c2)COC1	> 7.00	> 7.00		>=0.201	>=1.76	>=1.76	1	>=7.5	>=7.5	1.51	>=1.001
Cn1cnnc1CC1(c2cccc(N3Cc4c(cc(CN5CCC[C@H](F)C5)cc4C(F)(F)F)C3=O)c2)COC1		> 7.00		>=0.201	1.31	1.31	1	>=7.5	>=7.5	1	>=1.001
COc1cccc(C(=O)Nc2cccc(C(C)Sc3nncn3C)c2)c1 (stereo not drawn)	< 5.00		< 5.00								
C[C@H](c1cc2c(c(C(F)(F)F)c1)CN(c1cccc(C3(Cc4nncn4C)COC3)c1)C2=O)N1CCC(C)(F)CC1		> 7.00		>=0.201	>=1.76	>=1.76	1	>=7.5	>=7.5	>2.5	>=1.001
CC(Sc1nncn1C)c1cccc(NC(=O)c2cnc3ccccc3c2)c1 (stereo not drawn)			≤ 5.52								
CC(Sc1nncn1C)c1cc(CO)cc(NC(=O)c2ccc3ccccc3n2)c1 (stereo not drawn)			< 5.00								

Continued, in another order:

pKd [4]	pIC50 [7]	pIC50 [11]	SMILES	fold change (FC) [1]	fold change (FC) [2]	fold change (FC) [3]	fold change (FC) [5]	fold change (FC) [6]	fold change (FC) [8]	fold change (FC) [9]	fold change (FC) [10]
> 7.00	> 7.00		C[C@@H](c1cc2c(c(C(F)(F)F)c1)CN(c1cccc(C3(Cc4nncn4C)COC3)c1)C2=O)N1CCC(C)(F)CC1	>=0.201	>=1.76	>=1.76	1	>=7.5	>=7.5	1	>=1.001
		< 5.00	Cc1ccc2ccc(C(=O)Nc3cccc(C(C)Sc4nncn4C)c3)nc2n1 (stereo not drawn)								
> 7.00	> 7.00		Cn1cnnc1CC1(c2cccc(NC(=O)c3cc(CN4CC[C@H](F)C4)cc(C4CC4)n3)c2)COC1	>=0.201	1.51	1.51	1	>=7.5	>=7.5	1.51	>=1.001
		< 5.00	CC(Sc1nncn1C)c1cccc(NC(=O)c2ccc3cnccc3c2)c1 (stereo not drawn)								
	> 7.00		Cn1cnnc1CC1(c2cccc(N3Cc4c(cc(CN5CCC(F)CC5)cc4C(F)(F)F)C3=O)c2)COC1				1			1.51	
> 7.00	> 7.00		Cn1cnnc1[C@@H](F)C1(c2cccc(N3Cc4c(cc(CN5CCC(F)CC5)cc4C(F)(F)F)C3=O)c2)COC1	>=0.201	1.51	1.51	1	5	>=7.5	2.01	>=1.001
